From patent US20220226270A1, “VERY-LONG-CHAIN POLYUNSATURATED FATTY ACIDS, ELOVANOID HYDROXYLATED DERIVATIVES, AND METHODS OF USE” (Board of Supervisors of Louisiana State University and …, priority 2019, published 2022) come the findings set out here.

In test [1] the test system is mice sub-retinally injected with OAβ. The test is described as follows: Oligomeric Aβ (OAβ)-induced RPE senescence and retinal degeneration, sub-retinal injection. It counts as in vivo, mouse. The settings on record: 200 ng co-injected with 10 μM OAβ, 2 μl sub-retinal. From the text:
As shown in FIGS. 14A-14C, elovanoids (ELV) counteract AR peptide-induced retinal pigment epithelial cell senescence progression. Aβ42, an end product of the amyloidogenic pathway, is a component of drusen in age-related macular degeneration (AMD), and of senile plaques in Alzheimer's disease (AD). To mimic the effect of OAβ in vivo, 6-month-old mice were used and sub-retinally injected with OAβ alone, OAβ+ELVs and ELVs alone. The no injection mice were used as negative control while the PBS injected mice were used as the sham. The injection volume was 2 μl containing of PBS, 10 μM of OAβ, 10 μM of OAβ+200 ng ELV-32, 200 ng ELV-32 alone, 10 μM of OAβ+200 ng ELV-34 or 200 ng ELV-34 alone. At day 3 after injection, mRNA from eyecup was isolated and analyzed the gene expression using q-PCR. Then, at day 7, the mice were subjected to Optical Coherence Tomography (OCT) analysis and then the eyes were enucleated and processed for histology, whole mount RPE staining, and western blotting (WB). OCT and histology uncovers that in OAβ induced retinal degeneration, the thickness of retina was thinner in OAβ injected group when compared to the controls as well as ELVs treatment groups.

The subject of another test is ARPE-19 cells under UOS. Put plainly: Western blot of pro-survival and pro-apoptotic proteins in ARPE-19 cells under UOS. It counts as cell-based, human. Particulars: for Bax protein / Bid protein / Bim protein: Western blot, UOS; for Prohibitin (type-1) expression (ELV): sodium salts and methyl ester forms, concentration-dependent, 100-200 nM; for effect of 15-LOX-1 inhibitor on VLC-PUFA-induced Iduna expression: FIG. 7D. As to the method: (§1) ARPE19 cells at 75-80% confluence (72 h growth in DMEM/F12+10% FBS) in 6-well plates were serum-starved for 8 h before exposure. The serum-starved cells were treated with TNF-α (Sigma-Aldrich, St. Louis, Mo.) (10 ng/ml) and H2O2 (600 μM) to induce oxidative stress and challenged with increasing concentrations (50-500 nM) of VLC-PUFA (C32:6n3 and C34:6n3) simultaneously with oxidative stress for 16 h (apoptosis) and 6 h (Western-blot) before detection of apoptosis and harvesting for protein analysis. In some experiments, DHA at a concentration of 100 nM and 15-LOX-1 inhibitor PD146176 at a concentration of 1 μM was added to treat the RPE cells under stress. Cell extracts were made and protein concentrations adjusted by Bio-Rad (Hercules, Calif.) protein reagent and used for Western blot analysis.
Analysis of Proteins: Bcl-2 family proteins, SIRT1 and Proinhibitin (type-1), and Iduna proteins were analyze by Western blot analysis. In brief, 20-25 μg equivalents of each cell extracts were subject to electrophoresis on a 4-12% gel (Promega) at 125 V for 2 h. The proteins were transferred to nitrocellulose membrane by I-blot transfer apparatus. The membranes were subjected to treatment with primary antibodies specific for Bcl-2, Bcl-xL, Bax, Bid, Bim, SIRT1 and Prohibitin (type-1) (Santa Cruz Biotechnology) and Iduna antibody (Neuro-Mab Lab, UCLA, Los Angeles, Calif.) overnight at 4° C. and probed for 45 mins with secondary antibody, goat anti-mouse Ig:horseradish peroxidase, and horseradish peroxidase-conjugated anti-biotin antibody, and then proteins were evaluated by using an ECL kit (Amersham).
Background: A western blot detects proteins with antibodies after separation by electrophoresis.

In test [2] the test system is cerebral cortical mixed neuronal cells. Put plainly: NMDA excitotoxicity in cerebral cortical mixed neuronal cultures. It counts as cell-based, rat. Particulars: for NMDA-induced neuronal death: NMDA 25, 50 or 100 μM for 12 h, ELV (Na or Me) 200 nM or 500 nM added simultaneously. The source says: Primary cultures of cortical neurons: Primary cultures of cortical and hippocampal neurons were harvested from 18-day-old embryos (E18) taken from timed-pregnant, two-month-old Sprague-Dawley (SD) rats (Charles River Lab., Wilmington, Mass.). Briefly, timed-pregnant SD rats were euthanized and embryos were collected in sterile conditions. Embryonic brains were dissected out by forceps on ice and placed in a petri dish containing ice-cold Hank's Balanced Salt Solution (HBSS) (GIBCO). Meninges were removed under a dissecting microscope and cortical tissues were chopped into small pieces with micro-spring scissors. These tissues were transferred to 15 ml tubes containing trypsin-EDTA (0.025% in HBSS) and DNase I. The tubes were incubated in 37° C. chamber for 15 mins and were agitated every 5 mins. After stopping the trypsinization with 5 ml 10% FBS, these tissues were triturated 15 times with a fire polished Pasteur pipet. Cell clumps were left to settle for 2 mins and the supernatant was transferred to a 15 ml Eppendorf tube. The supernatant was filtered through a 70 μm pore-sized filter (Corning cell strainer) and centrifuged for 5 mins at 1000 rpm. The cells were then resuspended in Neurobasal medium (GIBCO) containing 2% B27 (GIBCO) and 2% N2 (GIBCO) supplements, along with 0.5 mM glutamine, 50 U/ml penicillin/streptomycin.
Cells were counted using a Neubauer hemocytometer. 1×10^6 cells were seeded on poly-D-lysine-coated 12 well cell culture dish (CORNING) and cultured in incubator (37° C., 5% CO2). Culture medium was first replaced after 24 h, then half of the medium was replaced with fresh medium every three days. As a result, approximately, 90% purity of neurons was obtained as determined by class-III-β tubulin, GFAP and Hoechst 33258 staining. Cells were maintained in culture for about 2 weeks until they were exposed to uncompensated oxidative stress, OGD, or NMDA excitotoxicity.
After 90 mins of OGD exposure, cells were returned to the original medium (Neurobasal medium (GIBCO) containing 2% B27 (GIBCO) and 2% N2 (GIBCO) supplements, along with 0.5 mM glutamine, 50 U/ml penicillin/streptomycin) and placed in a normoxic chamber (37° C., 5% CO2) for 2 h. Then the medium was changed with medium containing either ELV-N32 or ELV-N34 [500 nM] and maintained in a normoxic chamber (37° C., 5% CO2) for 12 h, after which cells were sampled and assayed for cell viability using different methods as previously described (25-28). Cerebral cortical mixed neuronal cells or hippocampal cells in culture were exposed to either NMDA or uncompensated oxidative stress (UOS) for 12 h by addition of either NMDA (25 μM, 50 μM, or 100 μM) concentration or by the addition of TNFα (10 ng/mL) and H2O2 (50 μM, 100 μM, or 200 μM). Cell viability and neuroprotection in the presence of ELV-N32, ELV-N34, 32:6, or 34:6 were assayed after 12 h.
Hoechst staining and unbiased image analysis: Cells were washed with 1× Dulbecco's Phosphate Buffered Saline (DPBS) containing no calcium or magnesium (GIBCO) and fixed for 10 mins using ice-cold 4% paraformaldehyde (PFA) followed by 15 mins incubation in 100% methanol. Cells were washed with 1× Phosphate Buffered Saline (PBS) pH 7.4 (GIBCO) and incubated in PBS containing 20 μM Hoechst 33258 (Molecular Probes) for 20 mins. Cells were then washed 3 times with 1× PBS and stored in 1× PBS at 4° C. until they were imaged for microscopy.
One 4×4 tile mosaic was acquired from the center of each well using a Zeiss 510 Meta laser confocal microscope and LSM 510 Meta software. Images were imported into image analysis software ImageJ (National Institutes of Health, Bethesda, Md.) and batch processed using custom macros. An Otsu auto threshold was applied to each image of Hoechst-stained nuclei, and the area of each detected object was recorded. Objects with areas <10 μm^2 were excluded from analysis. To estimate percentage non-pyknotic nuclei, a size cutoff value was chosen above which objects were assumed to be non-pyknotic. […]

The test system of a further test is primary human RPE cells. Put plainly: UOS-induced cell death in primary human RPE cells (Hoechst staining). Type of test: cell-based. Particulars: UOS with H2O2 (800 μM), 16 h; VLC-PUFAs 3 μM each, NPD1 200 nM; UOS alone 50% cell death. How it is done: Exposure of RPE cells to UOS and VLC-PUFA: For cell viability assay experiments hRPE cells were treated concomitantly with NPD1 (200 nM), 32-6, 34-6 (3 μM each) fatty acids or both 32-6 and 34-6 simultaneously. The hRPE medium was supplemented with 3 μM of 32-6 and 34-6 for the entire duration of the experiment. 15 lox-1 inhibitor (10 μM) was added to the cells 1 hour prior the OS induction and kept throughout the experiment. Cells were fixed with 4% PFA and stained with Hoescht.
(§2) To assess cell death, hRPE and ARPE-19 cells were fixed with methanol for 15 mins, washed with 1× PBS then loaded with 2 μM Hoechst dissolved in a Locke's solution (Promega) and incubated for another 15 mins before imaging. Cells were then viewed by using a Zeiss LSM 510 confocal microscope under UV fluorescence. Images were recorded and cell apoptosis was assessed by using an automated unbiased method.
To test the efficacy of 32:6n3 and 34:6n3 VLC-PUFAs to modulate human RPE cell homeostasis and survival rates, human RPE cells undergoing UOS were incubated with both VLC-PUFAs (3 μM each) and NPD1 (200 nM) 16 h. The addition of H2O2 (800 μM) induced apoptosis (50% cell death).
hRPE cells, formerly serum deprived for 12 h, were incubated with the 15 lipoxygenase 1 (15-LOX-1) inhibitor (PD146176) (10 μM for 1 h), then bathed with 600 μM H2O2/TNF-α in conjunction with a mixture of 32:6n3 and 34:6n3 (3 μM each) for 16 h. The 15-LOX-1 inhibitor sensitizes cells; therefore, a lower concentration of H2O2 than in the cytoprotection experiment was used.

The test system of a further test is ARPE-19 cells. Put plainly: UOS-induced apoptosis in ARPE-19 cells (Hoechst-positive pyknotic cells). Type of test: cell-based, human. The settings on record: inhibitor 1 μM, RPE cells undergoing UOS. As to the method: as §1, §2

On to `CC/C=C\C[C@H](O)\C=C/C=C/C=C/[C@H](O)C/C=C\C/C=C\CCCCCCCCCCCCC(=O)O` [ELV-N32, (14Z,17Z,20R,21E,23E,25Z,27S,29Z)-20,27-dihydroxydo-triaconta-14,17,21,23,25,29-hexaenoic acid], for which the “protection of RPE and retina from OAβ induced senescence” value in test [1] is “protect RPE and retina”. Moreover, in the test with ARPE-19 cells under UOS, the Bax protein result is “decreased”, the Bid protein result is listed as “decreased”, the Bim protein entry is “decreased” and the “Prohibitin (type-1) expression (ELV)” value was “upregulated”. Also, the NMDA-induced neuronal death result in test [2] is “compensated for”.

For `CC/C=C\C[C@H](O)\C=C/C=C/C=C/[C@H](O)C/C=C\C/C=C\CCCCCCCCCCCCCCC(=O)O` [ELV-N34, (16Z,19Z,22R,23E,25E,27Z, 29S,31Z)-22,29-dihydroxytetra-triaconta-16,19,23,25,27,31-hexaenoic acid], the “protection of RPE and retina from OAβ induced senescence” value in test [1] was “protect RPE and retina”. Besides, in the test on ARPE-19 cells under UOS, the Bax protein entry is reported as “decreased”, the Bid protein result is “decreased”, the Bim protein result was “decreased” and the “Prohibitin (type-1) expression (ELV)” value was “upregulated”. The NMDA-induced neuronal death entry in test [2] is given as “compensated for”.

As to `CC/C=C\C[C@H](O)\C=C/C=C/C=C/[C@H](O)C/C=C\C/C=C\CCC(=O)O` [NPD1, 10R,17S-dihydroxy-docosa-4Z,7Z,11E,13E,15Z,19Z-hexaenoic acid, reference compound], in the test on primary human RPE cells, the “cell death (apoptosis)” value was found to be 11%.

For `c1ccc2c(c1)SCc1c-2[nH]c2ccccc12` [PD146176, reference compound], in the test on ARPE-19 cells, the “effect of 15-LOX-1 inhibitor on ELV-mediated inhibition of apoptosis” value is reported as “compensate for ELV-mediated inhibition of apoptosis”. Also, the “SIRT1 expression with VLC-PUFA in the presence of 15-LOX-1 inhibitor” value in the test on ARPE-19 cells under UOS (FIG. 7C) was “augmented”. Moreover, the “effect of 15-LOX-1 inhibitor on VLC-PUFA-induced Iduna expression” value was “attenuates” with ARPE-19 cells under UOS and “unaffected” with ARPE-19 cells under UOS (listed as 15-LOX-1 inhibitor). The “effect of 15-LOX-1 inhibitor on ELV-induced protein upregulation (Iduna)” value in the test with ARPE-19 cells under UOS (inhibitor 1 μM) is given as “blocked these effects”.

In the case of MK801 maleate [reference compound], the NMDA excitotoxicity result in test [2] (10 μM antagonist) is “overcome”.
